Two molecules from paper PMC8510290, “Fishing of α-Glucosidase’s Ligands from Aloe vera by α-Glucosidase Functionalized Magnetic Nanoparticles” (Molecules, 2021) can be followed below.

The target of this assay is T1, α-glucosidase (Saccharomyces cerevisiae, UniProt P53341).
T1 construct: gene MAL12
The assay can be described thus: p-NPG hydrolysis assay (activation, maximal effect ratio) with purified enzyme; also fished out by enzyme-immobilized magnetic nanoparticles. Type of assay: biochemical.

The structures appear in SMILES notation.

T1 sequence (P53341 whole entry): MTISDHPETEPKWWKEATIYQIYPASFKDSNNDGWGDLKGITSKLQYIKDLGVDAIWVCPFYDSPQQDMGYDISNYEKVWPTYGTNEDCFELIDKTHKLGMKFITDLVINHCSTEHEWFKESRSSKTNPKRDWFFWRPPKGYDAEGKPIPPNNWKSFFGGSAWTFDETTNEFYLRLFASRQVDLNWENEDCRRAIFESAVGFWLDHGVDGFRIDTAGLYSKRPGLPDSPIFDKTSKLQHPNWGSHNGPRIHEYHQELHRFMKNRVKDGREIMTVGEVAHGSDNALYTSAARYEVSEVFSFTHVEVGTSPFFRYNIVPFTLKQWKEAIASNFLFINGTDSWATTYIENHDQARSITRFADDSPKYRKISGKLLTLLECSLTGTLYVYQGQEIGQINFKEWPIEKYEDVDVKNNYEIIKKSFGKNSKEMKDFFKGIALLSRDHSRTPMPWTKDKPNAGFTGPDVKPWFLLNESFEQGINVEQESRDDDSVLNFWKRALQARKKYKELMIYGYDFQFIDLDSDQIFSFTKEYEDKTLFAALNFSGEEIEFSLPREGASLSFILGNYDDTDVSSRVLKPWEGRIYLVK

The term Emax denotes the size of the effect at its maximum, as opposed to the concentration needed. In the case of `COc1cc(-c2c(C)cc(O)cc2O)oc(=O)c1` [compound 1, aloenin aglycone], the Emax was 26.4 ± 0.8%.
Next, `CC(=O)c1c(C[C@@H]2Cc3cc(O)cc(O)c3C(=O)O2)cc(O)cc1O[C@@H]1O[C@H](CO)[C@@H](O)[C@H](OC(=O)/C=C/c2ccc(O)cc2)[C@H]1O` [compound 2, aloeacone]: 17.8 ± 0.3%.
